Values after ≈ are worked out from the molar mass of the structure shown.
Key:
Type in all cases: functional
Escherichia coli = assay: Antimicrobial activity against Escherichia coli
Pseudomonas aeruginosa = assay: Antimicrobial activity against Pseudomonas aeruginosa
Staphylococcus aureus [1] = assay: Antimicrobial activity against Staphylococcus aureus 29
Enterococcus faecalis = assay: Antimicrobial activity against vancomycin resistant Enterococcus faecalis ATCC 51299
Staphylococcus aureus [2] = assay: Antimicrobial activity against Staphylococcus aureus 31
Staphylococcus aureus [3] = assay: Antimicrobial activity against methicillin-resistant Staphylococcus aureus 003
Staphylococcus aureus [4] = assay: Antimicrobial activity against methicillin-resistant Staphylococcus aureus 011
Candida albicans = assay: Antimicrobial activity against fluconazole-resistant Candida albicans
Staphylococcus aureus [5] = assay: Antimicrobial activity against Staphylococcus aureus 10

Row | Structure (SMILES) | MIC (Escherichia coli) | MIC (Pseudomonas aeruginosa) | MIC (Staphylococcus aureus [1]) | MIC (Enterococcus faecalis) | MIC (Staphylococcus aureus [2]) | MIC (Staphylococcus aureus [3]) | MIC (Staphylococcus aureus [4]) | MIC (Candida albicans) | MIC (Staphylococcus aureus [5])
1 | CCCCCCCCCCCCCOC(=O)[C@]12CCC(C)(C)C[C@H]1C1=CC[C@@H]3[C@@]4(C)CC[C@H](O)C(C)(C)[C@@H]4CC[C@@]3(C)[C@]1(C)CC2 | > 64 µg/mL | > 64 µg/mL | > 64 µg/mL | > 64 µg/mL | > 64 µg/mL | > 64 µg/mL | > 64 µg/mL | > 64 µg/mL | > 64 µg/mL
2 | CC1(C)CC[C@]2(C(=O)O)CC[C@]3(C)C(=CC[C@@H]4[C@@]5(CO)C[C@@H](O)[C@H](O)[C@@](C)(CO)[C@@H]5CC[C@]43C)[C@@H]2C1 | – | – | – | > 512 µg/mL | – | > 512 µg/mL | – | – | –
3 | C[C@H]1[C@H](C)CC[C@]2(C(=O)O)CC[C@]3(C)C(=CC[C@@H]4[C@@]5(C)C[C@@H](O)[C@H](O)[C@@](C)(CO)[C@@H]5CC[C@]43C)[C@H]12 [ASIATIC ACID] | – | – | – | 32 µg/mL (≈ 65.5 µM) | – | 16 µg/mL (≈ 32.7 µM) | – | – | –
4 | CC1(C)CC[C@]2(C(=O)O)CC[C@]3(C)C(=CC[C@@H]4[C@@]5(C)CC[C@H](OC(=O)c6ccccc6)C(C)(C)[C@@H]5CC[C@]43C)[C@@H]2C1 | > 64 µg/mL | > 64 µg/mL | > 64 µg/mL | > 64 µg/mL | > 64 µg/mL | > 64 µg/mL | > 64 µg/mL | > 64 µg/mL | > 64 µg/mL
5 | CCCC(=O)O[C@H]1CC[C@]2(C)[C@H]3CC=C4[C@@H]5CC(C)(C)CC[C@]5(C(=O)O)CC[C@@]4(C)[C@]3(C)CC[C@H]2C1(C)C | > 64 µg/mL | > 64 µg/mL | > 64 µg/mL | > 64 µg/mL | > 64 µg/mL | > 64 µg/mL | > 64 µg/mL | > 64 µg/mL | > 64 µg/mL
6 | CCC(=O)O[C@H]1CC[C@]2(C)[C@H]3CC=C4[C@@H]5CC(C)(C)CC[C@]5(C(=O)O)CC[C@@]4(C)[C@]3(C)CC[C@H]2C1(C)C | > 64 µg/mL | > 64 µg/mL | > 64 µg/mL | > 64 µg/mL | > 64 µg/mL | > 64 µg/mL | > 64 µg/mL | > 64 µg/mL | > 64 µg/mL
7 | CC(=O)O[C@H]1CC[C@]2(C)[C@H]3CC=C4[C@@H]5CC(C)(C)CC[C@]5(C(=O)N(C)C)CC[C@@]4(C)[C@]3(C)CC[C@H]2C1(C)C | > 64 µg/mL | > 64 µg/mL | > 64 µg/mL | > 64 µg/mL | > 64 µg/mL | > 64 µg/mL | > 64 µg/mL | > 64 µg/mL | > 64 µg/mL
8 | CC(=O)O[C@H]1CC[C@]2(C)[C@H]3CC=C4[C@@H]5CC(C)(C)CC[C@]5(C(=O)NCCc5ccccc5)CC[C@@]4(C)[C@]3(C)CC[C@H]2C1(C)C | > 64 µg/mL | > 64 µg/mL | > 64 µg/mL | > 64 µg/mL | > 64 µg/mL | > 64 µg/mL | > 64 µg/mL | > 64 µg/mL | > 64 µg/mL
9 | C[C@H]1[C@H](C)CC[C@]2(C(=O)O)CC[C@]3(C)C(=CC[C@@H]4[C@@]5(C)CC[C@H](O)C(C)(C)[C@@H]5CC[C@]43C)[C@H]12 [URSOLIC ACID] | – | – | – | 64 µg/mL (≈ 140 µM) | – | 64 µg/mL (≈ 140 µM) | – | – | –
10 | C=C1CC[C@]2(C)CC[C@]3(C)[C@H](CC[C@@H]4[C@@]5(C)CC[C@H](OC(C)=O)C(C)(C)[C@@H]5CC[C@]43C)[C@H]2[C@@H]1C [TARAXASTEROL ACETATE] | – | – | – | > 512 µg/mL | – | > 512 µg/mL | – | – | –
11 | C[C@H]1[C@H](C)CC[C@]2(C(=O)O)CC[C@]3(C)C(=CC[C@@H]4[C@@]5(C)C[C@@H](O)[C@H](O)C(C)(C)[C@@H]5CC[C@]43C)[C@H]12 [COROSOLIC ACID] | – | – | – | 32 µg/mL (≈ 67.7 µM) | – | 16 µg/mL (≈ 33.8 µM) | – | – | –
12 | CCNC(=O)[C@]12CCC(C)(C)C[C@H]1C1=CC[C@@H]3[C@@]4(C)CC[C@H](OC(C)=O)C(C)(C)[C@@H]4CC[C@@]3(C)[C@]1(C)CC2 | > 64 µg/mL | > 64 µg/mL | > 64 µg/mL | > 64 µg/mL | > 64 µg/mL | > 64 µg/mL | > 64 µg/mL | > 64 µg/mL | > 64 µg/mL
13 | C[C@H]1[C@H](C)CC[C@]2(C)CC[C@]3(C)C(=CC(=O)[C@@H]4[C@@]5(C)CC[C@@H](O)[C@](C)(C(=O)O)[C@@H]5CC[C@]43C)[C@H]12 [11-KETO BOSWELLIC ACID] | – | – | – | 32 µg/mL (≈ 68 µM) | – | 16 µg/mL (≈ 34 µM) | – | – | –
14 | C[C@H]1[C@H](C)CC[C@]2(C)CC[C@]3(C)C(=CC[C@@H]4[C@@]5(C)CC[C@H](O)C(C)(C)[C@@H]5CC[C@]43C)[C@H]12 | – | – | – | > 512 µg/mL | – | > 512 µg/mL | – | – | –
15 | CC1(C)CC[C@]2(C(=O)O[C@@H]3O[C@H](CO)[C@H](O)[C@H](O)[C@H]3O)CC[C@]3(C)C(=CC[C@@H]4[C@@]5(C)CC[C@H](O[C@@H]6O[C@H](C(=O)O)[C@@H](O)[C@H](O)[C@H]6O)C(C)(C)[C@@H]5CC[C@]43C)[C@@H]2C1 | – | – | – | > 512 µg/mL | – | > 512 µg/mL | – | – | –
16 | CC1(C)C(OC(=O)c2ccccc2)CC[C@]2(C)C3=C([C@@H](O)C[C@@H]12)[C@@]1(C)CC[C@@]2(C)CC[C@@](C)(COC(=O)c4ccccc4)C[C@H]2[C@]1(C)CC3 (stereo not given in full) | – | – | – | > 512 µg/mL | – | > 512 µg/mL | – | – | –
17 | CC1(C)[C@@H](O[C@@H]2O[C@H](C(=O)O)[C@@H](O)[C@H](O[C@@H]3O[C@H](C(=O)O)[C@@H](O)[C@H](O)[C@H]3O)[C@H]2O)CC[C@]2(C)[C@H]3C(=O)C=C4[C@@H]5C[C@@](C)(C(=O)O)CC[C@]5(C)CC[C@@]4(C)[C@]3(C)CC[C@@H]12 [GLYCYRRHIZINIC ACID] | – | – | – | > 512 µg/mL | – | > 512 µg/mL | – | – | –
18 | C[C@@H]1CC[C@]2(C(=O)O)CC[C@]3(C)C(=CC[C@@H]4[C@@]5(C)CC[C@H](O)[C@@](C)(CO)[C@@H]5CC[C@]43C)[C@@H]2[C@]1(C)O [ROTUNDIC ACID] | – | – | – | 256 µg/mL (≈ 524 µM) | – | 128 µg/mL (≈ 262 µM) | – | – | –
19 | C[C@H]1[C@H](C)CC[C@]2(C)CC[C@]3(C)C(=CC[C@@H]4[C@@]5(C)CC[C@@H](O)[C@](C)(C(=O)O)[C@@H]5CC[C@]43C)[C@H]12 [BOSWELLIC ACID] | – | – | – | 8 µg/mL (≈ 17.5 µM) | – | 8 µg/mL (≈ 17.5 µM) | – | – | –
20 | CC1(C)CC[C@]2(C(=O)O)CC[C@]3(C)C(=CC[C@@H]4[C@@]5(C)CC[C@H](O[C@@H]6O[C@H](C(=O)O)[C@@H](O)[C@H](O[C@@H]7OC[C@@H](O)[C@H](O)[C@H]7O)[C@H]6O)C(C)(C)[C@@H]5CC[C@]43C)[C@@H]2C1 | – | – | – | > 512 µg/mL | – | > 512 µg/mL | – | – | –
21 | CC1(C)CC[C@]2(C(=O)O)CC[C@]3(C)C(=CC[C@@H]4[C@@]5(C)CCC(=O)C(C)(C)[C@@H]5CC[C@]43C)[C@@H]2C1 [OLEANONIC ACID] | – | – | – | 512 µg/mL (≈ 1130 µM) | – | 256 µg/mL (≈ 563 µM) | – | – | –
22 | COC(=O)[C@@]1(C)CC[C@]2(C(=O)OC3O[C@H](CO)[C@@H](O)[C@H](O)[C@H]3O)CC[C@]3(C)C(=CC[C@@H]4[C@@]5(C)CC[C@H](O[C@@H]6OC[C@@H](O)[C@H](O)[C@H]6O)[C@@](C)(CO)[C@@H]5CC[C@]43C)[C@@H]2C1 (stereo not given in full) | – | – | – | > 512 µg/mL | – | > 512 µg/mL | – | – | –
23 | C[C@H]1[C@H](C)CC[C@]2(C(=O)O)CC[C@]3(C)C(=CC[C@@H]4[C@@]5(C)CCC(=O)C(C)(C)[C@@H]5CC[C@]43C)[C@H]12 [URSONIC ACID] | – | – | – | 256 µg/mL (≈ 563 µM) | – | 128 µg/mL (≈ 282 µM) | – | – | –
